According to patent publication US7094561B2, “Method of monitoring the menstrual cycle and/or pregnancy in a female” (University of Guelph, priority 2000, dated 2006):

How the values were obtained:
uterine tissue = assay: Adhesion of CD56-labeled human PBL to uterine tissue from hormone-treated ovariectomized mice; type: in vivo, mouse; conditions: for adhesion of CD56bright human lymphocytes to uterine tissue: uteri from Ovx mice treated with hormone, versus placebo-treated Ovx or virgin
Text: C57BI/6J (Jackson Laboratory, Bar Harbor, Me.) and Balb/c (Taconic, Germantown, N.Y.) mice, aged 7–8 wk were studied. Some females were used for timed matings with the morning of the copulation plug designated gd 0. Other females (n=34) were surgically ovariectomized under Avertin anaesthesia (24). Females were rested 6 days and then received daily subcutaneous injections of either hormone dissolved in sesame oil or sesame oil alone between 9.00–11.00 a.m. as indicated in FIG. 2.^81-84 Some of the Ovx hormone-treated mice also had 10 μl sterile sesame oil injected into a uterine horn to induce decidualization 48 h prior to euthanasia. Ovx mice were euthanized 24 hours after receiving their last injection and vaginal smears were collected and stained with Wright-Giemsa to confirm treatment success. Non-pregnant (NP) controls were virgin females who had never been paired with males. All procedures were performed under appropriate animal utilization protocols. The following samples were collected from each mouse and embedded in OCT (Miles Laboratories) for cryosectioning: i) a pool of 10–12 PLN from subcutaneous and intermuscular sites; ii) a pool of 10–12 intestinal PP; iii) the entire pancreas; and iv) the uterus. For some experiments, the median iliac lymph nodes that drain the pelvic organs, including the uterus, were also dissected. Non-decidualized uteri were trimmed at the ovarian and cervical ends, then incised longitudinally along one side on an axis midway between the mesometrial and anti-mesometrial aspects. The mesometrium (the mesentery suspending the uterus, also known as the broad ligament) was not removed and served as a positional landmark during analyses. For embedding, samples were oriented to produce full thickness longitudinal sections that included both antimesometrial and mesometrial sides. […] The cell suspensions evaluated for adhesive interactions with endothelium were human peripheral blood lymphocytes (PBL) isolated from random (female and male) normal donor buffy coat leukocyte concentrates (American Red Cross, Rochester, N.Y.);^85,68 and TK-1 cells (an alpha integrin^high, L-selectin^low mouse T lymphoma cell line).^85 In selected experiments, human PBL were cultured 6 hr at 37° C. or 40° C. before being applied to tissue sections, as previously described^12. […] Following removal of non adherent cells, glutaraldehyde-fixed specimens were stained with 0.5% toluidine blue and adhesion was scored on 300–500 HEV/PLN or PP specimen or equivalent numbers of small vessels in pancreatic tissue. When CD56-pre-labeled cells were used, fluorescent cells were quantified in 10 high power fields (HPF; one HPF=5 mm^2) at 200× magnification using an Olympus BH2/RFL fluorescence microscope (Olympus Optical, Tokyo, Japan) (10;29). […]

pancreas endothelium = assay: Adhesion of PBL or TK-1 cells to pancreas endothelium from hormone-treated ovariectomized mice; type: in vivo, mouse; conditions: tissue from hormone-treated Ovx mice
Text: C57BI/6J (Jackson Laboratory, Bar Harbor, Me.) and Balb/c (Taconic, Germantown, N.Y.) mice, aged 7–8 wk were studied. Some females were used for timed matings with the morning of the copulation plug designated gd 0. Other females (n=34) were surgically ovariectomized under Avertin anaesthesia (24). Females were rested 6 days and then received daily subcutaneous injections of either hormone dissolved in sesame oil or sesame oil alone between 9.00–11.00 a.m. as indicated in FIG. 2.^81-84 Some of the Ovx hormone-treated mice also had 10 μl sterile sesame oil injected into a uterine horn to induce decidualization 48 h prior to euthanasia. […]
The cell suspensions evaluated for adhesive interactions with endothelium were human peripheral blood lymphocytes (PBL) isolated from random (female and male) normal donor buffy coat leukocyte concentrates (American Red Cross, Rochester, N.Y.);^85,68 and TK-1 cells (an alpha integrin^high, L-selectin^low mouse T lymphoma cell line).^85 In selected experiments, human PBL were cultured 6 hr at 37° C. or 40° C. before being applied to tissue sections, as previously described^12. […] Following removal of non adherent cells, glutaraldehyde-fixed specimens were stained with 0.5% toluidine blue and adhesion was scored on 300–500 HEV/PLN or PP specimen or equivalent numbers of small vessels in pancreatic tissue. […]

[1] = test system: high endothelial venules (HEV) of peripheral lymph nodes (PLN); assay: Adhesion under shear of human PBL to PLN HEV in frozen sections from hormone-treated ovariectomized mice; type: in vivo, mouse; conditions: for L-selectin-dependent and α4 integrin-dependent lymphocyte adhesion to endothelium of secondary lymphoid tissues, compared to pregnancy: hormone-treated Ovx mice versus pregnant mice, shear flow
Text: C57BI/6J (Jackson Laboratory, Bar Harbor, Me.) and Balb/c (Taconic, Germantown, N.Y.) mice, aged 7–8 wk were studied. Some females were used for timed matings with the morning of the copulation plug designated gd 0. Other females (n=34) were surgically ovariectomized under Avertin anaesthesia (24). Females were rested 6 days and then received daily subcutaneous injections of either hormone dissolved in sesame oil or sesame oil alone between 9.00–11.00 a.m. as indicated in FIG. 2.^81-84 Some of the Ovx hormone-treated mice also had 10 μl sterile sesame oil injected into a uterine horn to induce decidualization 48 h prior to euthanasia. Ovx mice were euthanized 24 hours after receiving their last injection and vaginal smears were collected and stained with Wright-Giemsa to confirm treatment success. Non-pregnant (NP) controls were virgin females who had never been paired with males. All procedures were performed under appropriate animal utilization protocols. The following samples were collected from each mouse and embedded in OCT (Miles Laboratories) for cryosectioning: i) a pool of 10–12 PLN from subcutaneous and intermuscular sites; ii) a pool of 10–12 intestinal PP; iii) the entire pancreas; and iv) the uterus. For some experiments, the median iliac lymph nodes that drain the pelvic organs, including the uterus, were also dissected. Non-decidualized uteri were trimmed at the ovarian and cervical ends, then incised longitudinally along one side on an axis midway between the mesometrial and anti-mesometrial aspects. The mesometrium (the mesentery suspending the uterus, also known as the broad ligament) was not removed and served as a positional landmark during analyses. For embedding, samples were oriented to produce full thickness longitudinal sections that included both antimesometrial and mesometrial sides. Uteri from gd 3 were flushed for blastocysts to confirm pregnancy. The cell suspensions evaluated for adhesive interactions with endothelium were human peripheral blood lymphocytes (PBL) isolated from random (female and male) normal donor buffy coat leukocyte concentrates (American Red Cross, Rochester, N.Y.);^85,68 and TK-1 cells (an alpha integrin^high, L-selectin^low mouse T lymphoma cell line).^85 In selected experiments, human PBL were cultured 6 hr at 37° C. or 40° C. before being applied to tissue sections, as previously described^12. In all assays, some cell aliquots were incubated with function blocking mAb specific for human L-selectin (DREG-56, American Type Cell Collection [ATCC], Manassas, Va., 10 μg/ml) or human alpha4 integrin (HP2/1, Coulter Immunology, Hialeah, Fla., 10 μg/ml). To identify adherent human NK cells, PBL aliquots were pre-labeled with anti-CD56 mAb (NKG1, Coulter Immunology, diluted 1:100) followed by rabbit anti-mouse Ig-rhodamine isothiocynate (RITC) Ab as described previously (10;29). Control aliquots were treated with the secondary reagent alone. […] Following removal of non adherent cells, glutaraldehyde-fixed specimens were stained with 0.5% toluidine blue and adhesion was scored on 300–500 HEV/PLN or PP specimen or equivalent numbers of small vessels in pancreatic tissue. When CD56-pre-labeled cells were used, fluorescent cells were quantified in 10 high power fields (HPF; one HPF=5 mm^2) at 200× magnification using an Olympus BH2/RFL fluorescence microscope (Olympus Optical, Tokyo, Japan) (10;29). […]

[2] = test system: uterine artery and decidua; conditions: alymphoid mice, daily 100–1000 IU/6 days; cited from earlier work
[3] = test system: high endothelial venules (HEV) of Peyer's Patches (PP); assay: Adhesion under shear of TK-1 cells to Peyer's Patch HEV from hormone-treated ovariectomized mice; type: in vivo, mouse; conditions: tissue from Ovx mice treated with hormone, versus placebo or virgin controls
Text: C57BI/6J (Jackson Laboratory, Bar Harbor, Me.) and Balb/c (Taconic, Germantown, N.Y.) mice, aged 7–8 wk were studied. Some females were used for timed matings with the morning of the copulation plug designated gd 0. Other females (n=34) were surgically ovariectomized under Avertin anaesthesia (24). Females were rested 6 days and then received daily subcutaneous injections of either hormone dissolved in sesame oil or sesame oil alone between 9.00–11.00 a.m. as indicated in FIG. 2.^81-84 Some of the Ovx hormone-treated mice also had 10 μl sterile sesame oil injected into a uterine horn to induce decidualization 48 h prior to euthanasia. […] The cell suspensions evaluated for adhesive interactions with endothelium were human peripheral blood lymphocytes (PBL) isolated from random (female and male) normal donor buffy coat leukocyte concentrates (American Red Cross, Rochester, N.Y.);^85,68 and TK-1 cells (an alpha integrin^high, L-selectin^low mouse T lymphoma cell line).^85 In selected experiments, human PBL were cultured 6 hr at 37° C. or 40° C. before being applied to tissue sections, as previously described^12. […] Following removal of non adherent cells, glutaraldehyde-fixed specimens were stained with 0.5% toluidine blue and adhesion was scored on 300–500 HEV/PLN or PP specimen or equivalent numbers of small vessels in pancreatic tissue. […]

human lymphocytes = assay: Effect of blood collection anti-coagulant on adhesion of human lymphocytes to LN from pregnant mice; type: cell-based; conditions: blood collected into the anti-coagulant
Method: Male and female subjects of legal age and in good health were recruited to donate up to 30 ml of blood, using venipuncture into evacuated, sterile blood collection tubes. All subjects were informed about the risks of participation in this study and signed approved informed consent forms. The blood was layered onto an equal volume of Histopaque 1.077 (Sigma) and centrifuged at 400×g for 30 min at RT according to manufacturers instructions. The cells at the interface were collected, washed thrice and counted.
The effects of anti-coagulants on adhesive properties of isolated PBL were assessed. Ten ml of blood was collected by venipuncture (40 ml collected per subject) into sterile evacuated tubes containing either Acid Citrate Dextrose (ACD), EDTA, Sodium Citrate, or heparin. Lymphocytes were isolated as described above and applied to sections of LN from pregnant mice. The sections were assessed for lymphocyte adhesion by microscopy.

Molecule: C[C@]12CC[C@@H]3c4ccc(O)cc4CC[C@H]3[C@@H]1CC[C@@H]2O [E2, 17-beta estradiol]
- adhesion of CD56bright human lymphocytes to uterine tissue (uterine tissue): equivalent functional changes
- percentage of CD56bright cells among lymphocytes adhering to uterine tissue (enrichment) (uterine tissue; uterine tissue from mouse receiving hormone therapy, starting preparation 2–3% CD56bright): 70%
- adhesion of PBL or TK1 cells to pancreas (pancreas endothelium): no effect
- adhesion of PBL or TK1 cells to pancreas (pancreas endothelium; listed as estrogen): no increase
- L-selectin-dependent and α4 integrin-dependent lymphocyte adhesion to endothelium of secondary lymphoid tissues, compared to pregnancy [1]: fully mimicked the functional gains in adhesion promoted by pregnancy
- L-selectin-dependent and α4 integrin-dependent lymphocyte adhesion to endothelium of secondary lymphoid tissues, compared to pregnancy ([1]; listed as estrogen): equivalent to pregnancy

Molecule: Tumor necrosis factor-alpha
- uterine artery modification and decidua [2]: lacked these effects

Molecule: CC(=O)[C@H]1CC[C@H]2[C@@H]3CCC4=CC(=O)CC[C@]4(C)[C@H]3CC[C@]12C [P4, progesterone]
- adhesion of CD56bright human lymphocytes to uterine tissue (uterine tissue): equivalent functional changes
- adhesion of CD56bright human lymphocytes to uterine tissue (uterine tissue; listed as progesterone): promoted
- alpha4 integrin/MAdCAM-1-dependent TK-1 cell adhesion to PP HEV [3]: enhanced, progesterone-dependent, and α4 integrin-dependent, binding
- L-selectin-dependent and α4 integrin-dependent lymphocyte adhesion to endothelium of secondary lymphoid tissues, compared to pregnancy [1]: fully mimicked the functional gains in adhesion promoted by pregnancy
- L-selectin-dependent and α4 integrin-dependent lymphocyte adhesion to endothelium of secondary lymphoid tissues, compared to pregnancy ([1]; listed as progesterone): equivalent to pregnancy
- L-selectin-dependent adhesion of human PBL to PLN HEV ([1]; tissue from Ovx mice treated with hormone, versus placebo (oil) or virgin controls): enhanced L-selectin-dependent binding

Molecule: O=C([O-])CC(O)(CC(=O)[O-])C(=O)[O-].[Na+].[Na+].[Na+] [sodium citrate]
- adhesion of isolated human lymphocytes to LN from pregnant mice (human lymphocytes): did not interfere with adhesion

B1: recombinant mulFN-γ: recombinant murine interferon-gamma (protein, UniProt P01580 23-155, looked up)
Interferon gamma: HGTVIESLESLNNYFNSSGIDVEEKSLFLDIWRNWQKDGDMKILQSQIISFYLRLFEVLKDNQAISNNISVIESHLITTFFSNSKAKKDAFMSIAKFEVNNPQVQRQAFNELIRVVHQLLPESSLRKRKRSRC
- uterine artery modification and decidua [2]: promoted full uterine artery modification and normalized deciduas
